Common to all, as to format: in vivo
Experiment [1] deals with CNS chloroleukemia (chloroleukemic cell line MIAC51). Kind of experiment: Treatment of CNS chloroleukemia in paraplegic Fischer 344 rats with CoQ10 IV (Example 1). Here is the method:
(§1) A model of CNS chloroleukemia was created using Fischer 344 rats, in which chloroleukemic cells were injected into the rats as newborns and lipopolysaccharide (LPS) was given as a first-line of treatment. The cure rate with this regimen was approximately 50%, and approximately 10% of survivors developed CNS leukemia as judged by their motor skills and the presence of quadriplegia and paraplegia.
(§2) For this study, 2400 Fischer 344 neonates were injected with the chloroleukemic cell line MIAC51 and treated with LPS. All animals with overt signs of leukemia, i.e., systemic disease, were sacrificed by day 26. […] Of that cohort, 150 animals were selected with hind leg paraplegia on day 40, see FIGS. 1A and 1B. These animals were then re-randomized into 5 groups: group 1 received no treatment, group 2 received excipient control IV, group 3 received 5 mg/kg CoQ10 IV (i.e., 15 mg/kg/day), group 4 received 10 mg/kg IV (i.e., 30 mg/kg/day), and group 5 received 25 mg/kg IV (i.e., 75 mg/kg/day) for 4 weeks, 3 times daily.

The test system of experiment [2] is CNS chloroleukemia (metastatic, leukemic CNS tumors). The experiment in a line: Long term effect of CoQ10 on CNS chloroleukemia in paraplegic Fischer 344 rats (Example 2). Here is the method: FIG. 4: Long-term Effect of CoQ10 on CNS Leukemia. 300 paraplegic animals with overt CNS leukemia were randomized into two groups of 150 animals each: one received phosphate buffered saline (PBS) and the other group received 100 mg/kg CoQ10 once daily starting on day 1 through day 28 (first cycle). A second cycle of 100 mg/kg CoQ10 once daily started on day 35 and continued through day 62. Animals received two cycles of 28 days each of CoQ10. On days 173 and 195 as indicated by *, 5 animals were sacrificed for necropsy and pathology analysis.
The model of CNS chloroleukemia in Fischer 344 rats provided in Example 1 was used for long term studies of the treatment of metastatic, leukemic CNS tumors. As in Example 1 chloroleukemic cells were injected into the rats as newborns and lipopolysaccharide (LPS) was given as a first-line of treatment. The cure rate with this regimen was approximately 50%, and approximately 10% of survivors developed CNS leukemia as judged by their motor skills and the presence of quadriplegia and paraplegia.
For this study of long term effect of CoQ10 on CNS leukemia, 300 paraplegic animals with overt CNS leukemia were randomized into two groups of 150 animals each. Group one received a saline control. Group two received 100 mg/kg CoQ10 once daily starting on day 1 through day 28 (first cycle). The second cycle started on day 35 and continued through day 62. […]

The next experiment relates to chloroleukemic cells. The experiment in a line: First-line lipopolysaccharide treatment of chloroleukemia in Fischer 344 rats injected as newborns (model creation). Here is the method:
as §1, §2

In the case of `COC1=C(OC)C(=O)C(C/C=C(\C)CC/C=C(\C)CC/C=C(\C)CC/C=C(\C)CC/C=C(\C)CC/C=C(\C)CC/C=C(\C)CC/C=C(\C)CC/C=C(\C)CCC=C(C)C)=C(C)C1=O` [CoQ10, Coenzyme Q10], the “signs of improvement (CNS abnormalities, motor skills)” value in experiment [1] (5 mg/kg IV 3 times daily (15 mg/kg/day) for 4 weeks, group 3) is given as “did not exhibit any signs of improvement”; in experiment [1] (10 mg/kg IV 3 times daily (30 mg/kg/day) for 4 weeks, group 4), “did not exhibit any signs of improvement”. Further, the “MRI for tumor cells” value is listed as “positive for tumor cells” in experiment [1] (5 mg/kg IV 3 times daily (15 mg/kg/day), group 3); “positive for tumor cells” in experiment [1] (10 mg/kg IV 3 times daily (30 mg/kg/day), group 4); “lack of tumor cells” in experiment [1] (25 mg/kg IV three times per day (75 mg/kg/day), group 5, FIGS. 3A and B). The “recovery of motor skills / ability to walk” value is “significant recovery of their motor skills and regained their ability to walk” in experiment [1] (25 mg/kg IV three times per day (75 mg/kg/day) for 4 weeks, group 5); “significant recovery of their motor skills and regained their ability to walk” in experiment [2] (100 mg/kg IV once daily, two cycles of 28 days (days 1-28 and 35-62)). Also, in experiment [1] (FIG. 2, animals treated with or without CoQ10, 5, 10, 25 mg/kg IV 3 times daily), the “mortality due to CNS tumors (mortality curves)” value is “decrease in mortality due to CNS tumors is observed in a dose-dependent manner”. For the same compound, in experiment [2] (100 mg/kg CoQ10, five animals sacrificed on days 173 and 195), the “necropsy and pathological analysis for chloroleukemia or CNS tumors” value is recorded as “No evidence of chloroleukemia or CNS tumors were found”.

Take “lipopolysaccharide [lipopolysaccharide (LPS)]”: the cure rate result in the experiment with chloroleukemic cells (LPS as first-line treatment after injection of chloroleukemic cells into newborn rats) is on record as “approximately 50%”. Besides, the “survivors that developed CNS leukemia (motor skills, quadriplegia and paraplegia)” value with chloroleukemic cells (survivors of LPS first-line regimen) is recorded as “approximately 10%”.

The record behind these values is US11452699B2, “Method of treating or preventing tumors of the central nervous system” (Berg LLC, priority 2011, dated 2022).
